Results as given in PubChem BioAssay AID1259407 (Chemical Carcinogenesis Research Information System (CCRIS), 2018).
The source made the active and inactive calls. How the calls were made is not given here.

System: CCRIS mutagenicity, Ames/micronucleus/aberration tests
Assay: CCRIS mutagenicity studies

## ClC(Cl)=C(Cl)Cl
End Point: IN VITRO CHROMOSOMAL ABERRATIONS, Test System: CHINESE HAMSTER OVARY CELLS, Metabolic Activation: NONE
  mutagenic call: inactive; negative
End Point: IN VITRO CHROMOSOMAL ABERRATIONS, Test System: CHINESE HAMSTER OVARY CELLS, Metabolic Activation: RAT, LIVER, S-9, AROCLOR 1254
  mutagenic call: inactive; negative
End Point: IN VITRO CHROMOSOMAL ABERRATIONS, Test System: CHL/IU CELLS, Metabolic Activation: NONE
  mutagenic call: inactive; negative
End Point: IN VITRO CHROMOSOMAL ABERRATIONS, Test System: CHO CELLS, Metabolic Activation: NONE
  mutagenic call: inactive; negative
End Point: IN VITRO CHROMOSOMAL ABERRATIONS, Test System: CHO CELLS, Metabolic Activation: RAT, LIVER, S-9, AROCLOR 1254
  mutagenic call: inactive; negative
End Point: IN VITRO MICRONUCLEUS, Test System: CHL/IU CELLS, Metabolic Activation: NONE
  mutagenic call: inactive; negative
Test System: AMES SALMONELLA TYPHIMURIUM, Strain/Indicator: TA98, Metabolic Activation: HAMSTER, LIVER, S-9, AROCLOR 1254, Method: PREINCUBATION
  mutagenic call: inactive; negative
Test System: AMES SALMONELLA TYPHIMURIUM, Strain/Indicator: TA98, Metabolic Activation: NONE, Method: PREINCUBATION
  mutagenic call: inactive; negative
Test System: AMES SALMONELLA TYPHIMURIUM, Strain/Indicator: TA98, Metabolic Activation: NONE, Method: STANDARD PLATE
  mutagenic call: inactive; negative
Test System: AMES SALMONELLA TYPHIMURIUM, Strain/Indicator: TA98, Metabolic Activation: RAT, LIVER, S-9, AROCLOR 1254, Method: PREINCUBATION
  mutagenic call: inactive; negative
Test System: AMES SALMONELLA TYPHIMURIUM, Strain/Indicator: TA98, Metabolic Activation: RAT, LIVER, S-9, AROCLOR, Method: STANDARD PLATE
  mutagenic call: inactive; negative
Test System: AMES SALMONELLA TYPHIMURIUM, Strain/Indicator: TA100, Metabolic Activation: HAMSTER, LIVER, S-9, AROCLOR 1254, Method: PREINCUBATION
  mutagenic call: inactive; negative
Test System: AMES SALMONELLA TYPHIMURIUM, Strain/Indicator: TA100, Metabolic Activation: HAMSTER, LIVER, S-9, SODIUM PHENOBARBITAL, Method: STANDARD PLATE (SEALED PLATE)
  mutagenic call: inactive; negative
Test System: AMES SALMONELLA TYPHIMURIUM, Strain/Indicator: TA100, Metabolic Activation: MOUSE, LIVER, S-9, SODIUM PHENOBARBITAL, Method: STANDARD PLATE (SEALED PLATE)
  mutagenic call: inactive; negative
Test System: AMES SALMONELLA TYPHIMURIUM, Strain/Indicator: TA100, Metabolic Activation: NONE, Method: BAG VAPORIZATION
  mutagenic call: inactive; negative
Test System: AMES SALMONELLA TYPHIMURIUM, Strain/Indicator: TA100, Metabolic Activation: NONE, Method: PREINCUBATION
  mutagenic call: inactive; negative
Test System: AMES SALMONELLA TYPHIMURIUM, Strain/Indicator: TA100, Metabolic Activation: NONE, Method: SPOT
  mutagenic call: active; positive
Test System: AMES SALMONELLA TYPHIMURIUM, Strain/Indicator: TA100, Metabolic Activation: NONE, Method: STANDARD PLATE
  mutagenic call: inactive; negative
Test System: AMES SALMONELLA TYPHIMURIUM, Strain/Indicator: TA100, Metabolic Activation: NONE, Method: STANDARD PLATE (SEALED PLATE)
  mutagenic call: inactive; negative
Test System: AMES SALMONELLA TYPHIMURIUM, Strain/Indicator: TA100, Metabolic Activation: RAT, KIDNEY, MICROSOMES AND RAT, LIVER, GLUTATHIONE AND GLUTATHIONE TRANSFERASE, Method: PREINCUBATION
  mutagenic call: active; positive
Test System: AMES SALMONELLA TYPHIMURIUM, Strain/Indicator: TA100, Metabolic Activation: RAT, LIVER, S-9, AROCLOR 1254, Method: BAG VAPORIZATION
  mutagenic call: inactive; negative
Test System: AMES SALMONELLA TYPHIMURIUM, Strain/Indicator: TA100, Metabolic Activation: RAT, LIVER, S-9, AROCLOR 1254, Method: PREINCUBATION
  mutagenic call: inactive; negative
Test System: AMES SALMONELLA TYPHIMURIUM, Strain/Indicator: TA100, Metabolic Activation: RAT, LIVER, S-9, AROCLOR, Method: STANDARD PLATE
  mutagenic call: inactive; negative
Test System: AMES SALMONELLA TYPHIMURIUM, Strain/Indicator: TA100, Metabolic Activation: RAT, LIVER, S-9, SODIUM PHENOBARBITAL, Method: STANDARD PLATE (SEALED PLATE)
  mutagenic call: inactive; negative
Test System: AMES SALMONELLA TYPHIMURIUM, Strain/Indicator: TA102, Metabolic Activation: MOUSE, LIVER, S-9, SODIUM PHENOBARBITAL, Method: STANDARD PLATE (SEALED PLATE)
  mutagenic call: inactive; negative
Test System: AMES SALMONELLA TYPHIMURIUM, Strain/Indicator: TA102, Metabolic Activation: NONE, Method: STANDARD PLATE (SEALED PLATE)
  mutagenic call: inactive; negative
Test System: AMES SALMONELLA TYPHIMURIUM, Strain/Indicator: TA102, Metabolic Activation: S-9, Method: STANDARD PLATE
  mutagenic call: inactive; negative
Test System: AMES SALMONELLA TYPHIMURIUM, Strain/Indicator: TA104, Metabolic Activation: MOUSE, LIVER, S-9, SODIUM PHENOBARBITAL, Method: STANDARD PLATE (SEALED PLATE)
  mutagenic call: inactive; negative
Test System: AMES SALMONELLA TYPHIMURIUM, Strain/Indicator: TA104, Metabolic Activation: NONE, Method: STANDARD PLATE (SEALED PLATE)
  mutagenic call: inactive; negative
Test System: AMES SALMONELLA TYPHIMURIUM, Strain/Indicator: TA1535, Metabolic Activation: HAMSTER, LIVER, S-9, AROCLOR 1254, Method: PREINCUBATION
  mutagenic call: inactive; negative
Test System: AMES SALMONELLA TYPHIMURIUM, Strain/Indicator: TA1535, Metabolic Activation: MOUSE, LIVER, S-9, SODIUM PHENOBARBITAL, Method: STANDARD PLATE (SEALED PLATE)
  mutagenic call: inactive; negative
Test System: AMES SALMONELLA TYPHIMURIUM, Strain/Indicator: TA1535, Metabolic Activation: NONE, Method: PREINCUBATION
  mutagenic call: inactive; negative
Test System: AMES SALMONELLA TYPHIMURIUM, Strain/Indicator: TA1535, Metabolic Activation: NONE, Method: STANDARD PLATE (SEALED PLATE)
  mutagenic call: inactive; negative
Test System: AMES SALMONELLA TYPHIMURIUM, Strain/Indicator: TA1535, Metabolic Activation: RAT, LIVER, S-9, AROCLOR 1254, Method: PREINCUBATION
  mutagenic call: inactive; negative
Test System: AMES SALMONELLA TYPHIMURIUM, Strain/Indicator: TA1537, Metabolic Activation: HAMSTER, LIVER, S-9, AROCLOR 1254, Method: PREINCUBATION
  mutagenic call: inactive; negative
Test System: AMES SALMONELLA TYPHIMURIUM, Strain/Indicator: TA1537, Metabolic Activation: NONE, Method: PREINCUBATION
  mutagenic call: inactive; negative
Test System: AMES SALMONELLA TYPHIMURIUM, Strain/Indicator: TA1537, Metabolic Activation: RAT, LIVER, S-9, AROCLOR 1254, Method: PREINCUBATION
  mutagenic call: inactive; negative
Test System: AMES SALMONELLA TYPHIMURIUM, Strain/Indicator: TA2638, Metabolic Activation: S-9, Method: STANDARD PLATE
  mutagenic call: inactive; negative
Test System: AMES SALMONELLA TYPHIMURIUM, Strain/Indicator: UTH8413, Metabolic Activation: NONE, Method: STANDARD PLATE
  mutagenic call: inactive; negative
Test System: AMES SALMONELLA TYPHIMURIUM, Strain/Indicator: UTH8413, Metabolic Activation: RAT, LIVER, S-9, AROCLOR, Method: STANDARD PLATE
  mutagenic call: inactive; negative
Test System: AMES SALMONELLA TYPHIMURIUM, Strain/Indicator: UTH8414, Metabolic Activation: NONE, Method: STANDARD PLATE
  mutagenic call: inactive; negative
Test System: AMES SALMONELLA TYPHIMURIUM, Strain/Indicator: UTH8414, Metabolic Activation: RAT, LIVER, S-9, AROCLOR, Method: STANDARD PLATE
  mutagenic call: inactive; negative
Test System: Ames Salmonella typhimurium, Strain/Indicator: TA98, Metabolic Activation: None, Method: Gas exposure method
  mutagenic call: inactive; negative (two experiments)
Test System: Ames Salmonella typhimurium, Strain/Indicator: TA98, Metabolic Activation: Rat, Liver, S9, Sodium phenobarbital and 5,6-benzoflavone (10%), Method: Gas exposure method
  mutagenic call: inactive; negative (two experiments)
Test System: Ames Salmonella typhimurium, Strain/Indicator: TA100, Metabolic Activation: None, Method: Gas exposure method
  mutagenic call: inactive; negative (two experiments)
Test System: Ames Salmonella typhimurium, Strain/Indicator: TA100, Metabolic Activation: Rat, Liver, S9, Sodium phenobarbital and 5,6-benzoflavone (10%), Method: Gas exposure method
  mutagenic call: inactive; negative (two experiments)
Test System: Ames Salmonella typhimurium, Strain/Indicator: TA1535, Metabolic Activation: None, Method: Gas exposure method
  mutagenic call: active; positive (two experiments)
Test System: Ames Salmonella typhimurium, Strain/Indicator: TA1535, Metabolic Activation: Rat, Liver, S9, Sodium phenobarbital and 5,6-benzoflavone (10%), Method: Gas exposure method
  mutagenic call: active; positive (two experiments)
Test System: Ames Salmonella typhimurium, Strain/Indicator: TA1537, Metabolic Activation: None, Method: Gas exposure method
  mutagenic call: inactive; negative (two experiments)
Test System: Ames Salmonella typhimurium, Strain/Indicator: TA1537, Metabolic Activation: Rat, Liver, S9, Sodium phenobarbital and 5,6-benzoflavone (10%), Method: Gas exposure method
  mutagenic call: inactive; negative (two experiments)
Test System: CHO/HGPRT, Strain/Indicator: CHO/GIEMSA, Metabolic Activation: NONE, Method: STANDARD PLATE
  mutagenic call: inactive; negative
Test System: CHO/HGPRT, Strain/Indicator: CHO/GIEMSA, Metabolic Activation: RAT, LIVER, S-9, AROCLOR 1254, Method: STANDARD PLATE
  mutagenic call: inactive; negative
Test System: E. COLI, Strain/Indicator: WP2 (PKM101), Metabolic Activation: S-9, Method: STANDARD PLATE
  mutagenic call: inactive; negative
Test System: E. COLI, Strain/Indicator: WP2 UVRA (PKM101), Metabolic Activation: S-9, Method: STANDARD PLATE
  mutagenic call: inactive; negative
Test System: E. coli, Strain/Indicator: WP2uvrA/pKM101, Metabolic Activation: None, Method: Gas exposure method
  mutagenic call: inactive; negative (two experiments)
Test System: E. coli, Strain/Indicator: WP2uvrA/pKM101, Metabolic Activation: Rat, Liver, S9, Sodium phenobarbital and 5,6-benzoflavone (10%), Method: Gas exposure method
  mutagenic call: inactive; negative (two experiments)
Test System: MOUSE LYMPHOMA, Strain/Indicator: L5178Y (TK+/TK-), Metabolic Activation: NONE, Method: SUSPENSION/PLATE
  mutagenic call: inactive; negative
Test System: MOUSE LYMPHOMA, Strain/Indicator: L5178Y (TK+/TK-), Metabolic Activation: RAT, LIVER, S-9, AROCLOR 1254, Method: SUSPENSION/PLATE
  mutagenic call: inactive; negative
